The target of this assay is Human immunodeficiency virus type 1 integrase (Human immunodeficiency virus 1, UniProt Q7ZJM1). The experiment in a line: Inhibition of HIV1 integrase strand transfer activity.

Results on one compound are retold here after ChEMBL document CHEMBL1151211, “Isolation, structure, absolute stereochemistry, and HIV-1 integrase inhibitory activity of integrasone, a novel fungal polyketide” (J Nat Prod, 2004).

Human immunodeficiency virus type 1 integrase, sequence (Q7ZJM1 whole entry): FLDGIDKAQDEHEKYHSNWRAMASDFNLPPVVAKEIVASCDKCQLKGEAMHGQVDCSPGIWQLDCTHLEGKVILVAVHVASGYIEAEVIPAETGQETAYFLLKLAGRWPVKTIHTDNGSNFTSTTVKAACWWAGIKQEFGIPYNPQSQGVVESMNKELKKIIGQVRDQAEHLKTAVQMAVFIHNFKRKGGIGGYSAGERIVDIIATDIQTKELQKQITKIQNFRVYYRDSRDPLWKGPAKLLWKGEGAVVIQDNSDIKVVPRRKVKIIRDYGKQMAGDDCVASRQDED

By IC50 is commonly meant the concentration at which inhibition is half-maximal. Read a low IC50 as greater potency in that assay. With `CCCCCC[C@H]1OC(=O)C2=C1[C@@H](O)[C@@H]1O[C@@H]1[C@@H]2O` [INTEGRASONE], half-maximal inhibition (IC50) was put at 41 µM.
